This is an account of results in the PolyMetriX glass transition set.

SMILES strings stand for the structures.

Regarding `*/C(C#N)=C/c1ccc(N(CC)Cc2ccccc2CN(CC)c2ccc(/C=C(\C#N)S(*)(=O)=O)cc2)cc1` (repeat unit), the glass transition temperature amounted to 190.00 °C.

For the compound `*/C=C(\C#N)C(=O)NC1CCCCC1NC(=O)/C(C#N)=C/c1ccc(/C=C/c2ccc(N(CC)Cc3cccc(CN(CC)c4ccc(/C=C/c5ccc(*)s5)cc4)c3)cc2)s1` (repeat unit), the glass transition temperature stood at 157.00 °C.

`*/C=C(\C#N)c1cccc(/C(C#N)=C/c2ccc(/C=C/c3ccc(N(CC)Cc4ccccc4CN(CC)c4ccc(/C=C/c5ccc(*)s5)cc4)cc3)s2)c1` (repeat unit) showed a glass transition temperature of 178.00 °C.

The compound `*/C=C/c1ccc(N(CC)Cc2ccccc2CN(CC)c2ccc(/C=C/c3ccc(/C=C(\C#N)S(=O)(=O)/C(C#N)=C/c4ccc(*)s4)s3)cc2)cc1` (repeat unit) had a glass transition temperature of 178.00 °C.

Regarding `*=CNc1ccc(CCc2ccc(N=*)cc2)cc1` (repeat unit), the glass transition temperature came out at 125.00 °C.

The compound `*CC1CCC(COP(=O)(/N=N/c2ccc(-c3ccc(/N=N/P(=O)(O*)OC)cc3)cc2)OC)CC1` (repeat unit) had a glass transition temperature of 58.00 °C.

As to `*CC1CCC(COP(=O)(/N=N/c2ccc(C(=O)c3ccc(/N=N/P(=O)(O*)OC)cc3)cc2)OC)CC1` (repeat unit), the glass transition temperature amounted to 52.00 °C.

In turn, `*CCCCCCOC(=O)C(CCCCP(=O)(OCC)OCC)C(=O)OCCCCCCOc1ccc(-n2on2-c2ccc(O*)cc2)cc1` (repeat unit) displayed a glass transition temperature of 4.00 °C.

`*CCN(CCOC(=O)c1cc(OCCN(C)c2ccc(S(=O)(=O)C(F)(F)C(F)(F)C(F)(F)C(F)(F)C(F)(F)C(F)(F)C(F)(F)C(F)(F)F)cc2)cc(C(=O)O*)c1)c1ccc(S(=O)(=O)C(F)(F)C(F)(F)C(F)(F)C(F)(F)C(F)(F)C(F)(F)C(F)(F)C(F)(F)F)cc1` (repeat unit) came in with a glass transition temperature of 83.00 °C.

`*CCN(CCOC(=O)c1cc(OCc2c(F)c(F)c(OC)c(F)c2F)cc(C(=O)O*)c1)c1ccc(/C=C/c2ccc(/C=C/C3=C(C#N)C(=C(C#N)C#N)OC3(c3ccccc3)C(F)(F)F)s2)cc1` (repeat unit): the glass transition temperature came to 140.00 °C.

With `*CCN(CCOC(=O)c1ccc(C(=O)O*)c(OCCC)c1)c1ccc(-c2nc3ccc([N+](=O)[O-])cc3o2)cc1` (repeat unit), the glass transition temperature came out at 119.00 °C.

The compound `*CCN(CCOC(=O)c1ccc(C(=O)O*)c(OCCCCC)c1)c1ccc(/N=N/c2nc(C#N)c(C#N)[nH]2)cc1` (repeat unit) registered a glass transition temperature of 131.00 °C.

Compound `*CCOCCOP(=O)(/N=N/c1ccc(-c2ccc(/N=N/P(=O)(O*)OC)cc2)cc1)OC` (repeat unit) gave a glass transition temperature of 22.00 °C.

With `*[CH2][Ge]([CH3])([CH3])[CH2]c1cocc1*` (repeat unit), the glass transition temperature is -28.00 °C.

The compound `*N(C)[Si](*)(C)C=C` (repeat unit) came in with a glass transition temperature of -20.00 °C.

In turn, `*N(C)[Si](C)(C)N(C)[Si](*)(C)CC` (repeat unit) displayed a glass transition temperature of -20.00 °C.

`*Oc1c(F)c(F)c(-c2c(F)c(F)c(Oc3ccc(Cc4ccc(*)c(C=O)c4)cc3C=O)c(F)c2F)c(F)c1F` (repeat unit): the glass transition temperature amounted to 198.00 °C.

In the case of `*Oc1ccc(CC(C#N)(Cc2ccc(*)cc2)c2ccccc2)cc1` (repeat unit), the glass transition temperature is 143.00 °C.

Consider `*Oc1ccc(CC(Cc2ccc(*)cc2)(C(=O)OCC)C(=O)OCC)cc1` (repeat unit), for which the glass transition temperature was 54.00 °C.

Compound `*Oc1ccc(CC(NC(=O)CCc2ccc(OC(=O)CCCC(*)=O)cc2)C(=O)OC(C)CC)cc1` (repeat unit) had a glass transition temperature of 52.00 °C.

For `*Oc1ccc(CC(NC(=O)CCc2ccc(OC(=O)CCCC(*)=O)cc2)C(=O)OCC)cc1` (repeat unit), the glass transition temperature was found to be 70.00 °C.

`*Oc1ccc(CC(NC(=O)CCc2ccc(OC(=O)CCCC(*)=O)cc2)C(=O)OCCCCCC)cc1` (repeat unit) came in with a glass transition temperature of 43.00 °C.

On to `*Oc1ccc(CC(NC(=O)CCc2ccc(OC(=O)CCCCC(*)=O)cc2)C(=O)OC(C)CC)cc1` (repeat unit), for which the glass transition temperature was found to be 50.00 °C.

`*Oc1ccc(CC(NC(=O)CCc2ccc(OC(=O)CCCCC(*)=O)cc2)C(=O)OCC(C)C)cc1` (repeat unit): the glass transition temperature came out at 56.00 °C.

Compound `*Oc1ccc(CC(NC(=O)CCc2ccc(OC(=O)CCCCC(*)=O)cc2)C(=O)OCC)cc1` (repeat unit) returned a glass transition temperature of 61.00 °C.

For `*Oc1ccc(CC(NC(=O)CCc2ccc(OC(=O)CCCCCCC(*)=O)cc2)C(=O)OCC(C)C)cc1` (repeat unit), the glass transition temperature was 42.00 °C.

Consider `*Oc1ccc(CC(NC(=O)CCc2ccc(OC(=O)CCCCCCCCC(*)=O)cc2)C(=O)OCC(C)C)cc1` (repeat unit), for which the glass transition temperature is 33.00 °C.

In the case of `*Oc1ccc(CC(NC(=O)CCc2ccc(OC(=O)CCCCCCCCC(*)=O)cc2)C(=O)OCCCCCCCC)cc1` (repeat unit), the glass transition temperature is 15.50 °C.

Consider `*Oc1ccc(CC(NC(=O)CCc2ccc(OC(=O)COCC(*)=O)cc2)C(=O)OC(C)C)cc1` (repeat unit), for which the glass transition temperature came out at 80.00 °C.

Compound `*Oc1ccc(CC(NC(=O)CCc2ccc(OC(=O)COCC(*)=O)cc2)C(=O)OC(C)CC)cc1` (repeat unit) displayed a glass transition temperature of 68.00 °C.

The compound `*Oc1ccc(CC(NC(=O)CCc2ccc(OC(=O)COCC(*)=O)cc2)C(=O)OCC)cc1` (repeat unit) had a glass transition temperature of 79.00 °C.

In turn, `*Oc1ccc(CC(NC(=O)CCc2ccc(OC(=O)COCC(*)=O)cc2)C(=O)OCCCCCCCCCCCC)cc1` (repeat unit) came in with a glass transition temperature of 36.00 °C.

In turn, `*Oc1ccc(CC(NC(=O)CCc2ccc(OC(=O)COCCOCC(*)=O)cc2)C(=O)OC(C)C)cc1` (repeat unit) returned a glass transition temperature of 58.00 °C.

`*Oc1ccc(CC(NC(=O)CCc2ccc(OC(=O)COCCOCC(*)=O)cc2)C(=O)OCCCC)cc1` (repeat unit) had a glass transition temperature of 45.00 °C.

Compound `*Oc1ccc(CC(NC(=O)Cc2ccc(OC(=O)CC(C)CCC(*)=O)cc2)C(=O)OCCCCCCCC)cc1` (repeat unit) returned a glass transition temperature of 30.00 °C.

In turn, `*Oc1ccc(CC(NC(=O)Cc2ccc(OC(=O)CCCC(*)=O)cc2)C(=O)OCCCCCCCC)cc1` (repeat unit) displayed a glass transition temperature of 38.00 °C.

As for `*Oc1ccc(CC(NC(=O)Cc2ccc(OC(=O)CCCCCCC(*)=O)cc2)C(=O)OCC)cc1` (repeat unit), the glass transition temperature amounted to 54.00 °C.

On to `*Oc1ccc(CC(NC(=O)Cc2ccc(OC(=O)CCCCCCC(*)=O)cc2)C(=O)OCCCCCCCC)cc1` (repeat unit), for which the glass transition temperature was 22.00 °C.

Compound `*Oc1ccc(CC(NC(=O)Cc2ccc(OC(=O)COCCOCC(*)=O)cc2)C(=O)OCC)cc1` (repeat unit) came in with a glass transition temperature of 50.00 °C.

As to `*Oc1ccc(CC(NC(=O)Cc2ccc(OC(=O)COCCOCC(*)=O)cc2)C(=O)OCCCCCC)cc1` (repeat unit), the glass transition temperature was 31.00 °C.

In turn, `*Oc1ccc(CC(NC(=O)Cc2ccc(OC(=O)COCCOCC(*)=O)cc2)C(=O)OCCCCCCCC)cc1` (repeat unit) showed a glass transition temperature of 23.00 °C.

Take `*Oc1ccc(Cc2ccc(OC(*)=O)c(C)c2)cc1C` (repeat unit): the glass transition temperature was 51.00 °C.
